Assay results: ChEMBL document CHEMBL1671662, “In vitro activities of telavancin and six comparator agents against anaerobic bacterial isolates” (2009)
Values after ≈ are worked out from the molar mass of the structure shown.

What was measured:
Format in all cases: functional
Clostridioides difficile = experiment: Antibacterial activity against Clostridium difficile by CLSI M11-A6 agar dilution method in presence of beta-lactamase inhibitor Sulbactam
Anaerococcus prevotii [1] = experiment: Antibacterial activity against Anaerococcus prevotii by CLSI M11-A6 agar dilution method in presence of beta-lactamase inhibitor Sulbactam
Parabacteroides merdae = experiment: Antibacterial activity against Parabacteroides merdae by CLSI M11-A6 agar dilution method in presence of beta-lactamase inhibitor Sulbactam
[2] = tested on: Paraclostridium bifermentans; experiment: Antibacterial activity against Clostridium bifermentans by CLSI M11-A6 agar dilution method
[3] = tested on: Enterocloster clostridioformis; experiment: Antibacterial activity against Clostridium clostridioforme by CLSI M11-A6 agar dilution method
[4] = tested on: Bacteroides thetaiotaomicron; experiment: Antibacterial activity against Bacteroides thetaiotaomicron by CLSI M11-A6 agar dilution method
Clostridium bolteae = experiment: Antibacterial activity against Clostridium bolteae by CLSI M11-A6 agar dilution method; details: Enterocloster bolteae
Ruminococcus sp. = experiment: Antibacterial activity against Ruminococcus sp. by CLSI M11-A6 agar dilution method
Fusobacterium mortiferum = experiment: Antibacterial activity against Fusobacterium mortiferum by CLSI M11-A6 agar dilution method
Clostridium glycolicum = experiment: Antibacterial activity against Clostridium glycolicum by CLSI M11-A6 agar dilution method; details: Terrisporobacter glycolicus
Prevotella corporis = experiment: Antibacterial activity against Prevotella corporis by CLSI M11-A6 agar dilution method
Thomasclavelia ramosa = experiment: Antibacterial activity against Clostridium ramosum by CLSI M11-A6 agar dilution method
Prevotella intermedia = experiment: Antibacterial activity against Prevotella P intermedia by CLSI M11-A6 agar dilution method
Ruminococcus albus = experiment: Antibacterial activity against Ruminococcus albus by CLSI M11-A6 agar dilution method; details: Hominimerdicola alba
Blautia luti = experiment: Antibacterial activity against Ruminococcus luti by CLSI M11-A6 agar dilution method
Anaerococcus prevotii [5] = experiment: Antibacterial activity against Anaerococcus prevotii by CLSI M11-A6 agar dilution method
Hoylesella loescheii = experiment: Antibacterial activity against Prevotella loescheii by CLSI M11-A6 agar dilution method
Clostridium subterminale = experiment: Antibacterial activity against Clostridium subterminale by CLSI M11-A6 agar dilution method
Ruminococcus gnavus = experiment: Antibacterial activity against Ruminococcus gnavus by CLSI M11-A6 agar dilution method; details: Mediterraneibacter gnavus
Actinomyces naeslundii = experiment: Antibacterial activity against Actinomyces naeslundii by CLSI M11-A6 agar dilution method
[6] = tested on: Clostridium sporosphaeroides; experiment: Antibacterial activity against Clostridium sporosphaeroides by CLSI M11-A6 agar dilution method; details: Faecalispora sporosphaeroides
[Clostridium] innocuum = Antibacterial activity against Clostridium innocuum by CLSI M11-A6 agar dilution method
Bifidobacterium bifidum = experiment: Antibacterial activity against Bifidobacterium bifidum by CLSI M11-A6 agar dilution method
[7] = tested on: Paeniclostridium sordellii; experiment: Antibacterial activity against Clostridium sordellii by CLSI M11-A6 agar dilution method; details: Paraclostridium sordellii
Clostridium beijerinckii = experiment: Antibacterial activity against Clostridium beijerinckii by CLSI M11-A6 agar dilution method
Bifidobacterium dentium = experiment: Antibacterial activity against Bifidobacterium dentium by CLSI M11-A6 agar dilution method
Prevotella nigrescens = experiment: Antibacterial activity against Prevotella nigrescens by CLSI M11-A6 agar dilution method
[8] = tested on: Clostridium paraputrificum; experiment: Antibacterial activity against Clostridium paraputrificum by CLSI M11-A6 agar dilution method
Clostridium bartlettii = experiment: Antibacterial activity against Clostridium bartlettii by CLSI M11-A6 agar dilution method; details: Intestinibacter bartlettii
Prevotella disiens = experiment: Antibacterial activity against Prevotella P disiens by CLSI M11-A6 agar dilution method
Phocaeicola vulgatus = experiment: Antibacterial activity against Bacteroides vulgatus by CLSI M11-A6 agar dilution method
Clostridium = experiment: Antibacterial activity against Clostridium hypermegas by CLSI M11-A6 agar dilution method
Streptococcus anginosus = experiment: Antibacterial activity against Streptococcus anginosus by CLSI M11-A6 agar dilution method
[9] = tested on: Parabacteroides distasonis; experiment: Antibacterial activity against Parabacteroides distasonis by CLSI M11-A6 agar dilution method
Parvimonas micra = experiment: Antibacterial activity against Peptostreptococcus micros by CLSI M11-A6 agar dilution method
Prevotella oris = experiment: Antibacterial activity against Prevotella oris by CLSI M11-A6 agar dilution method; details: Segatella oris
Ruminococcus torques = experiment: Antibacterial activity against Ruminococcus torques by CLSI M11-A6 agar dilution method; details: Mediterraneibacter torques
Prevotella bivia = experiment: Antibacterial activity against Prevotella bivia by CLSI M11-A6 agar dilution method
[10] = tested on: Bifidobacterium pseudolongum; experiment: Antibacterial activity against Bifidobacterium pseudolongum by CLSI M11-A6 agar dilution method
Holdemania filiformis = experiment: Antibacterial activity against Holdemania filiformis by CLSI M11-A6 agar dilution method
Clostridium disporicum = experiment: Antibacterial activity against Clostridium disporicum by CLSI M11-A6 agar dilution method
Ruminococcus lactaris = experiment: Antibacterial activity against Ruminococcus lactaris by CLSI M11-A6 agar dilution method

CC1(C)S[C@@H]2[C@H](NC(=O)[C@H](N)c3ccccc3)C(=O)N2[C@H]1C(=O)O [AMPICILLIN]
MIC (Clostridioides difficile): 2 µg/mL | MIC50 (Clostridioides difficile): 2 µg/mL | MIC90 (Clostridioides difficile): 4 µg/mL | MIC50 (Anaerococcus prevotii [1]): 0.25 µg/mL | MIC90 (Anaerococcus prevotii [1]): 0.5 µg/mL | MIC50 (Parabacteroides merdae): 8 µg/mL | MIC90 (Parabacteroides merdae): 32 µg/mL

CCCCCCCCCC(=O)N[C@@H](Cc1c[nH]c2ccccc12)C(=O)N[C@H](CC(N)=O)C(=O)N[C@@H](CC(=O)O)C(=O)N[C@@H]1C(=O)NCC(=O)N[C@@H](CCCN)C(=O)N[C@@H](CC(=O)O)C(=O)N[C@H](C)C(=O)N[C@@H](CC(=O)O)C(=O)NCC(=O)N[C@H](CO)C(=O)N[C@@H]([C@H](C)CC(=O)O)C(=O)N[C@@H](CC(=O)c2ccccc2N)C(=O)O[C@@H]1C
MIC50 [2]: 1 µg/mL (≈ 0.617 µM) | MIC90 [2]: 8 µg/mL (≈ 4.94 µM) | MIC50 [3]: 2 µg/mL (≈ 1.23 µM) | MIC90 [3]: 4 µg/mL (≈ 2.47 µM) | MIC [4]: > 128 µg/mL | MIC50 [4]: > 128 µg/mL | MIC90 [4]: > 128 µg/mL | MIC50 (Clostridium bolteae): 4 µg/mL (≈ 2.47 µM) | MIC90 (Clostridium bolteae): 4 µg/mL (≈ 2.47 µM) | MIC50 (Ruminococcus sp.): 1 µg/mL (≈ 0.617 µM) | MIC90 (Ruminococcus sp.): 4 µg/mL (≈ 2.47 µM) | MIC (Fusobacterium mortiferum): > 128 µg/mL | MIC50 (Fusobacterium mortiferum): > 128 µg/mL | MIC90 (Fusobacterium mortiferum): > 128 µg/mL | MIC50 (Clostridium glycolicum): 1 µg/mL (≈ 0.617 µM) | MIC90 (Clostridium glycolicum): 8 µg/mL (≈ 4.94 µM) | MIC (Prevotella corporis): > 128 µg/mL | MIC50 (Prevotella corporis): > 128 µg/mL | MIC90 (Prevotella corporis): > 128 µg/mL | MIC50 (Thomasclavelia ramosa): 64 µg/mL (≈ 39.5 µM) | MIC90 (Thomasclavelia ramosa): 64 µg/mL (≈ 39.5 µM) | MIC (Prevotella intermedia): > 128 µg/mL | MIC50 (Prevotella intermedia): > 128 µg/mL | MIC90 (Prevotella intermedia): > 128 µg/mL | MIC50 (Ruminococcus albus): 1 µg/mL (≈ 0.617 µM) | MIC90 (Ruminococcus albus): 2 µg/mL (≈ 1.23 µM) | MIC50 (Blautia luti): 1 µg/mL (≈ 0.617 µM) | MIC90 (Blautia luti): 2 µg/mL (≈ 1.23 µM) | MIC50 (Anaerococcus prevotii [5]): 1 µg/mL (≈ 0.617 µM) | MIC90 (Anaerococcus prevotii [5]): 4 µg/mL (≈ 2.47 µM) | MIC (Hoylesella loescheii): > 128 µg/mL | MIC50 (Hoylesella loescheii): > 128 µg/mL | MIC90 (Hoylesella loescheii): > 128 µg/mL | MIC50 (Clostridium subterminale): 1 µg/mL (≈ 0.617 µM) | MIC90 (Clostridium subterminale): 2 µg/mL (≈ 1.23 µM) | MIC50 (Ruminococcus gnavus): ≤ 0.12 µg/mL | MIC90 (Ruminococcus gnavus): 0.25 µg/mL (≈ 0.154 µM) | MIC50 (Actinomyces naeslundii): 1 µg/mL (≈ 0.617 µM) | MIC90 (Actinomyces naeslundii): 32 µg/mL (≈ 19.7 µM) | MIC50 [6]: 1 µg/mL (≈ 0.617 µM) | MIC90 [6]: 8 µg/mL (≈ 4.94 µM) | MIC50 ([Clostridium] innocuum): 8 µg/mL (≈ 4.94 µM) | MIC90 ([Clostridium] innocuum): 16 µg/mL (≈ 9.87 µM) | MIC50 (Bifidobacterium bifidum): 1 µg/mL (≈ 0.617 µM) | MIC90 (Bifidobacterium bifidum): 32 µg/mL (≈ 19.7 µM) | MIC50 [7]: 1 µg/mL (≈ 0.617 µM) | MIC90 [7]: 8 µg/mL (≈ 4.94 µM) | MIC50 (Clostridium beijerinckii): 1 µg/mL (≈ 0.617 µM) | MIC90 (Clostridium beijerinckii): 8 µg/mL (≈ 4.94 µM) | MIC50 (Bifidobacterium dentium): 1 µg/mL (≈ 0.617 µM) | MIC90 (Bifidobacterium dentium): 32 µg/mL (≈ 19.7 µM) | MIC (Prevotella nigrescens): > 128 µg/mL | MIC50 (Prevotella nigrescens): > 128 µg/mL | MIC90 (Prevotella nigrescens): > 128 µg/mL | MIC50 [8]: 1 µg/mL (≈ 0.617 µM) | MIC90 [8]: 8 µg/mL (≈ 4.94 µM) | MIC50 (Clostridium bartlettii): 1 µg/mL (≈ 0.617 µM) | MIC90 (Clostridium bartlettii): 8 µg/mL (≈ 4.94 µM) | MIC (Prevotella disiens): > 128 µg/mL | MIC50 (Prevotella disiens): > 128 µg/mL | MIC90 (Prevotella disiens): > 128 µg/mL | MIC (Phocaeicola vulgatus): > 128 µg/mL | MIC50 (Phocaeicola vulgatus): > 128 µg/mL | MIC90 (Phocaeicola vulgatus): > 128 µg/mL | MIC50 (Clostridium): 1 µg/mL (≈ 0.617 µM) | MIC90 (Clostridium): 8 µg/mL (≈ 4.94 µM) | MIC50 (Streptococcus anginosus): 2 µg/mL (≈ 1.23 µM) | MIC90 (Streptococcus anginosus): 4 µg/mL (≈ 2.47 µM) | MIC [9]: > 128 µg/mL | MIC50 [9]: > 128 µg/mL | MIC90 [9]: > 128 µg/mL | MIC50 (Parvimonas micra): 1 µg/mL (≈ 0.617 µM) | MIC90 (Parvimonas micra): 4 µg/mL (≈ 2.47 µM) | MIC (Prevotella oris): > 128 µg/mL | MIC50 (Prevotella oris): > 128 µg/mL | MIC90 (Prevotella oris): > 128 µg/mL | MIC50 (Ruminococcus torques): 1 µg/mL (≈ 0.617 µM) | MIC90 (Ruminococcus torques): 2 µg/mL (≈ 1.23 µM) | MIC (Prevotella bivia): > 128 µg/mL | MIC50 (Prevotella bivia): > 128 µg/mL | MIC90 (Prevotella bivia): > 128 µg/mL | MIC50 [10]: 1 µg/mL (≈ 0.617 µM) | MIC90 [10]: 32 µg/mL (≈ 19.7 µM) | MIC50 (Holdemania filiformis): 1 µg/mL (≈ 0.617 µM) | MIC90 (Holdemania filiformis): 32 µg/mL (≈ 19.7 µM) | MIC50 (Clostridium disporicum): 1 µg/mL (≈ 0.617 µM) | MIC90 (Clostridium disporicum): 8 µg/mL (≈ 4.94 µM) | MIC50 (Ruminococcus lactaris): 1 µg/mL (≈ 0.617 µM) | MIC90 (Ruminococcus lactaris): 2 µg/mL (≈ 1.23 µM)
